Experiments:
[1] = Ozone detection method, fluorescence turn-on of sensor in aqueous buffer / cell culture media
Experimental: In order to develop a fluorescent method amenable to both biological and atmospheric detection, pH 7 buffer ([PO4^3−]=5 mM) is chosen to perform the conversion of sensor 4, such as homoallyl ether, to fluorescent compound 7. A solution of sensor 4 in 5:95 MeOH/pH 7 buffer at 24° C. is exposed to ozone, incubated at 37° C. for 1 hour to facilitate β-elimination, and formation of fluorescent compound 7 is observed (signal-to-background (S/B)=Sample B (28)/Sample A (0.35)=80) (FIG. 2a). For an ozone detection method in the presence of cells, the ozonolysis reaction is performed in a mixture of pH 7 buffer and RPMI-1640 cell culture media (3:1).
Ozone detection method. Solutions of compound 4 ([4]final=12.5 μM) in 5:95 MeOH/pH 7 buffer ([PO4^3−]=5 mM) solution (4.0 mL) were prepared, and the samples were exposed to ozone at 24° C. followed by 1 hour incubation at 37° C. before fluorescence measurement (except for the ambient air experiments). The concentration of ozone was 5 μM for these studies. Fluorescence spectra were recorded in a 1×1-cm disposable cuvette on a Jobin Yvon FluoroMax-3 spectrometer under the control of a Windows-based PC running FluorEssence software. The samples were excited at 497 nm and the emission intensities were collected at 523 nm. All spectra were corrected for emission intensity using the manufacturer supplied photomultiplier curves.
Ozone: Solution A (5.0 μL, [compound 4 or compound 8]final=12.5 μM) was added to a mixture of MeOH/pH 7 buffer ([PO4^3−]=5 mM) (5:95) (4.0 mL), and the samples were exposed to ozone (˜5 μM) at 24° C. followed by 1 hour incubation at 37° C. before fluorescence measurement.

[2] = Ozone detection in indoor air on adsorbent paper strips; conditions: 500 nmol on adsorbent paper, photocopy room, eight hours
Experimental: One embodiment of the present invention can be a badge that contains compound 4 that may be worn by patients so their total ozone exposure can be continuously measured through the day. A proof-of-principle experiment was conducted with compound 4 and compound 1 as a comparative. A solution of compound 4 (500 nmol) in dimethylsulfoxide (DMSO) was absorbed on a piece of adsorbent paper and allowed to dry. The paper strips were stored in an office room that had two photocopiers and two laser printers. After eight hours, the paper strips were removed and placed in a vial that contained oH 7 buffer to elute the dyes. […] The deviation in these values is presumably because of photobleaching and the lack of specificity of compound 1 towards various ROS, including singlet oxygen.
Ozone detection in indoor air. FIG. 10 are photographic illustrations of results of Ozone detection tests in indoor air using the present invention. The top photograph is a Kimwipe® before placing into photocopy room for 8 hours. The bottom photographs are a Kimwipe® in buffer for absorbance and fluorescence measurement, wherein the left photograph is an indigo carmine taken in room light), and the right photograph is compound 4 taken under long-range UV lamp. One adsorbent paper (Kimwipe®) was cut into two 11×9 cm pieces. Solution A (50 μL, 500 nmol of compound 4) was added to one portion of the Kimwipe® and allowed to dry (FIG. 10, top right). Solution B (50 μL, 500 nmol of indigo carmine) was added to the other portion of the Kimwipe® and allowed to dry (FIG. 10, top left). After overnight drying in a laboratory drawer, the paper strips were moved to a poorly ventilated photocopy room (2 photocopiers and 2 laser printers) for 8 hours. The controls remained in the laboratory drawer. After 8 hours, the samples were placed into a scintillation vial, and the dyes were eluted with pH 7 buffer (6.0 mL) (˜5 min) before fluorescence and absorbance measurement. […] FIGS. 3C-D error bars were determined from the calculated mean and standard deviation (Prism 5.0a, GraphPad Software, Inc.).

## C=CCCOc1cc2oc3cc(=O)c(Cl)cc-3c(-c3ccccc3CO)c2cc1Cl [compound 4]
[1]; 12.5 μM sensor, 5:95 MeOH/pH 7 buffer, no ozone (background)
  fluorescent intensity at 523 nm, Sample A (no ROS): 0.35 a. u.×10^5
[1]; 12.5 μM sensor, 5:95 MeOH/pH 7 buffer, ozone at 24° C. then 1 hour at 37° C.
  fluorescent intensity at 523 nm, Sample B (ozone): 28 a. u.×10^5
[1]; 5:95 MeOH/pH 7 buffer, ozone at 24° C. then 1 hour at 37° C.
  signal-to-background (S/B): 80
[1]; mixture of pH 7 buffer and RPMI-1640 cell culture media (3:1)
  signal-to-background (S/B): 104
[2]
  compound 7 generated on paper strip: 0.95 nmol
